Legend:
Type in all cases: cell-based
[1] = target: T1, human TLR8 (Homo sapiens, UniProt Q9NR97); experiment: TLR8 inhibition reporter assay (HEK-Blue, SEAP); conditions: HEK-Blue cells overexpressing human TLR8, ligand R848 14.25 μM, 22 hour incubation
T1 construct: host or cells: HEK-Blue cells
T1 sequence (Q9NR97 27-1041): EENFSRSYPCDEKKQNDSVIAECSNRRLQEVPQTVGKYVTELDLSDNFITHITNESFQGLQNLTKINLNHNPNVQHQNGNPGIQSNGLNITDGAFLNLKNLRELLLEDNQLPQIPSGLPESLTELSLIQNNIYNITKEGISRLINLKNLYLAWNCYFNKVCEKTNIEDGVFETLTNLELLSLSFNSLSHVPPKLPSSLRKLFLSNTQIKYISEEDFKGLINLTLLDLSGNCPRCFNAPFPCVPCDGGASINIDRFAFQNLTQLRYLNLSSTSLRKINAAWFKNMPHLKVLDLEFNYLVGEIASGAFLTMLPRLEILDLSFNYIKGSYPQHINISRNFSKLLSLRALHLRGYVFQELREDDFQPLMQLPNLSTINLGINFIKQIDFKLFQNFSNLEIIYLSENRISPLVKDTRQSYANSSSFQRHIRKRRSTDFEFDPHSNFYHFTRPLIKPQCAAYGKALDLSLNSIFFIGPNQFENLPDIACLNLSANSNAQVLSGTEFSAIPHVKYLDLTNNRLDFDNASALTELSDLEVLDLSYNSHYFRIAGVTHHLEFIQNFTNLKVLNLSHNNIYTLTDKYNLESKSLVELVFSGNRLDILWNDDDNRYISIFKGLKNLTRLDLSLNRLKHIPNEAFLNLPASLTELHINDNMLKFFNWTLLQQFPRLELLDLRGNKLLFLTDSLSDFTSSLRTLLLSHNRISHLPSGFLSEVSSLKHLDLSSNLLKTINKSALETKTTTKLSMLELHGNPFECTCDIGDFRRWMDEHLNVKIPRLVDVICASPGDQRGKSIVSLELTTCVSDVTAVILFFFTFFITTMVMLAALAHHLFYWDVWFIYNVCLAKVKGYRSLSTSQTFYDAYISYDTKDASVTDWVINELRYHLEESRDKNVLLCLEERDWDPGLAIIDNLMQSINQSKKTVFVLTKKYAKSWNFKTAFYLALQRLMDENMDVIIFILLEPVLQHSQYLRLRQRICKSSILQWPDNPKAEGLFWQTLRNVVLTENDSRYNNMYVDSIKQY
Method: (§1) TLR7/8/9 Inhibition Reporter Assays
(§2) HEK-Blue™-cells (Invivogen) overexpressing human TLR7. TLR8 or TLR9 receptors were used for screening inhibitors of these receptors using an inducible SEAP (secreted embryonic alkaline phosphatase) reporter gene under the control of the IFN-β minimal promoter fused to five NF-κB and AP-1-binding sites. Cells are seeded into Greiner 384 well plates (15000 cells per well) that are pre dispensed (by ECHO) with testing compounds in DMSO to yield a final dose response concentration range of 0.85 nM-50 μM. After a 60 minute compound pre-treatment in 37 degree incubator, the cells are then stimulated with a TLR7 ligand (gardiquimod at a final concentration of 2.5 μM), TLR8 ligand (R848 at a final concentration of 14.25 μM) or TLR9 ligand (ODN2006 at a final concentration of 200 nM) to activate NF-κB and AP-1 which induce the production of SEAP. After a 22 hour incubation at 37° C., 5% CO2, SEAP levels are determined with the addition of HEK-Blue™ Detection reagent (Invivogen), a cell culture medium that allows for detection of SEAP, according to manufacturer's specifications. The percent inhibition is determined as the % reduction in the HEK-Blue signal present in […].

[2] = target: T2, human TLR7 (Homo sapiens, UniProt Q9NYK1); experiment: TLR7 inhibition reporter assay (HEK-Blue, SEAP); conditions: HEK-Blue cells overexpressing human TLR7, ligand gardiquimod 2.5 μM, 22 hour incubation
T2 construct: host or cells: HEK-Blue cells
T2 sequence (Q9NYK1 27-1049): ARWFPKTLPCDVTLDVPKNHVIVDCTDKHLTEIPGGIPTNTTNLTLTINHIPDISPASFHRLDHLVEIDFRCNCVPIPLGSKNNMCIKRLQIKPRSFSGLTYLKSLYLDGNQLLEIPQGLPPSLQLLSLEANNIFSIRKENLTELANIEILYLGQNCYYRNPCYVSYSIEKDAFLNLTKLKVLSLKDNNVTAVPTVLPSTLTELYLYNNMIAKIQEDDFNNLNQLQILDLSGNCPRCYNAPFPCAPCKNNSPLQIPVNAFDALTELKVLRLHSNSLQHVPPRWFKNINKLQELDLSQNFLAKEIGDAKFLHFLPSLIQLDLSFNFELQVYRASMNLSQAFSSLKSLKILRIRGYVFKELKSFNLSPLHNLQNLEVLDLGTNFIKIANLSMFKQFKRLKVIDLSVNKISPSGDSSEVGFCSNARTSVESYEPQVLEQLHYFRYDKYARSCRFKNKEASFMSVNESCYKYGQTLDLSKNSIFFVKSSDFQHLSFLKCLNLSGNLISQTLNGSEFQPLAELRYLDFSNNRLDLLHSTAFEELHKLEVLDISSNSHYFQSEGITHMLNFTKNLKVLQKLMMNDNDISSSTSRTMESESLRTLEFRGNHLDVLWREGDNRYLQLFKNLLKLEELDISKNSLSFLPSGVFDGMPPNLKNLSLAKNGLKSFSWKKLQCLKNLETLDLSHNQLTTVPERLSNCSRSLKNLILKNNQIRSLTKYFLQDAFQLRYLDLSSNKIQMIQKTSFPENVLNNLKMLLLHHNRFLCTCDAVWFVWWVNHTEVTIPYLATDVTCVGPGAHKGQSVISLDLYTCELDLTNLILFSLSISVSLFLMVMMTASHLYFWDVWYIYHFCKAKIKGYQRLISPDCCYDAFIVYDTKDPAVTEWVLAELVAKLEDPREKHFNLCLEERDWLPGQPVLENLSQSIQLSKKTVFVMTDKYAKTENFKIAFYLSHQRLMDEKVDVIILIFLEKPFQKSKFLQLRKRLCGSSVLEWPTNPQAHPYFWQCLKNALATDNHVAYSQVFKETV
Method: as §1, §2

[3] = target: T3, human TLR9 (Homo sapiens, UniProt Q9NR96); experiment: TLR9 inhibition reporter assay (HEK-Blue, SEAP); conditions: HEK-Blue cells overexpressing human TLR9, ligand ODN2006 200 nM, 22 hour incubation
T3 construct: host or cells: HEK-Blue cells
T3 sequence (Q9NR96 26-1032): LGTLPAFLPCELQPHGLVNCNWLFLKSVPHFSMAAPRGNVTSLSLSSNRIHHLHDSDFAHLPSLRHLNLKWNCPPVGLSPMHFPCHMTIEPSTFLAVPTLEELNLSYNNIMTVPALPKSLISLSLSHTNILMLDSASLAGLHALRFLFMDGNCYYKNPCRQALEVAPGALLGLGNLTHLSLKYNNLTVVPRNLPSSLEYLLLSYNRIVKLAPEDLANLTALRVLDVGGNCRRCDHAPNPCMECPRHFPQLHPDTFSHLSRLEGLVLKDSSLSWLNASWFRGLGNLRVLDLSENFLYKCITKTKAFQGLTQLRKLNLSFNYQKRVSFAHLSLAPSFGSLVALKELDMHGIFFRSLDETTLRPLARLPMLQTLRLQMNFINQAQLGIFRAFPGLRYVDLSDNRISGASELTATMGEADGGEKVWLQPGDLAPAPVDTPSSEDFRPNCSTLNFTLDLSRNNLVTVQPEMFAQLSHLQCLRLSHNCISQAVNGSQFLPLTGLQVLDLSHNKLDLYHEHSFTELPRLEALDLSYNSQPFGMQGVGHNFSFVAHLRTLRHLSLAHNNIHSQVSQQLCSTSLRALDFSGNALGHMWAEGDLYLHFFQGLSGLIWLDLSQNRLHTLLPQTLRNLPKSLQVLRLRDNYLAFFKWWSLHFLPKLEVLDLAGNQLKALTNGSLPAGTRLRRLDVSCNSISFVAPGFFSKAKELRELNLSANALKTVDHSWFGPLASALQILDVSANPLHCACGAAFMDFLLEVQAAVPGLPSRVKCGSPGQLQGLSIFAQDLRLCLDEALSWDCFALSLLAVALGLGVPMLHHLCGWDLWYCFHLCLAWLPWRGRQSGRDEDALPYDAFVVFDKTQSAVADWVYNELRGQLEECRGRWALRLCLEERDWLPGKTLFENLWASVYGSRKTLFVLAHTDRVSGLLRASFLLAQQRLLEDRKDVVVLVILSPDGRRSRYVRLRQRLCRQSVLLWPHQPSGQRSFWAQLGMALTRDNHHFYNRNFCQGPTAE
Method: as §1, §2

Structure (SMILES) | IC50 [1] | IC50 [2] | IC50 [3]
Cc1cc(C2CCN(C3CC4CCC(C3)N4C(C)C)CC2)nc2c1nc(-c1ccc(S(C)(=O)=O)cc1)n2C (single isomer, unassigned) [Example 26, 5-(1-(8-isopropyl-8-azabicyclo[3.2.1]octan-3-yl)piperidin-4-yl)-3,7-dimethyl-2-(4-(methylsulfonyl)phenyl)-3H-imidazo[4,5-b]pyridine] | > 50000 nM | 10000 nM | 58 nM
CC(C)CN1CCC(N2CCC(c3ccc4nc(-c5ccc(S(C)(=O)=O)cc5)n(C)c4n3)CC2)CC1 [Example 18, 5-(1′-isobutyl-[1,4′-bipiperidin]-4-yl)-3-methyl-2-(4-(methylsulfonyl)phenyl)-3H-imidazo[4,5-b]pyridine] | > 25000 nM | 2800 nM | 780 nM
Cn1c(-c2ccc(S(C)(=O)=O)cc2)nc2ncc(C3CCN(C4CCN(C5CC5)CC4)CC3)cc21 [Example 16, 6-(1′-cyclopropyl-[1,4′-bipiperidin]-4-yl)-1-methyl-2-(4-(methylsulfonyl)phenyl)-1H-imidazo[4,5-b]pyridine] | > 25000 nM | > 25000 nM | 1400 nM
COc1ccc(-c2nc3c(C)cc(C4CCN([C@H]5C[C@@H]6CN(CC(C)C)C[C@@H]6C5)CC4)nc3n2C)cc1OC [Example 37, 2-(3,4-dimethoxyphenyl)-5-(1-(2-isobutyloctahydrocyclopenta[c]pyrrol-5-yl)piperidin-4-yl)-3,7-dimethyl-3H-imidazo[4,5-b]pyridine] | > 50000 nM | 1200 nM | 100 nM
Cc1cc(C2CCN(C3CCN(C4CCC4)CC3)CC2)nc2c1nc(-c1ccc(S(C)(=O)=O)cc1)n2C [Example 24, 5-(1′-cyclobutyl-[1,4′-bipiperidin]-4-yl)-3,7-dimethyl-2-(4-(methylsulfonyl)phenyl)-3H-imidazo[4,5-b]pyridine] | > 50000 nM | 5400 nM | 240 nM
Cc1cc(C2CCN(C3CC4CCC(C3)N4C3CCC3)CC2)nc2c1nc(-c1ccc(S(C)(=O)=O)cc1)n2C (stereo not drawn) [Example 33, 5-(1-(8-cyclobutyl-8-azabicyclo[3.2.1]octan-3-yl)piperidin-4-yl)-3,7-dimethyl-2-(4-(methylsulfonyl)phenyl)-3H-imidazo[4,5-b]pyridine] | 19000 nM | 1500 nM | 69 nM
Cc1cc(C2CCN(C3CC4CCC(C3)N4C3CCC3)CC2)nc2c1nc(-c1ccc(S(C)(=O)=O)cc1)n2C (stereo not drawn) [Example 32, 5-(1-(8-cyclobutyl-8-azabicyclo[3.2.1]octan-3-yl)piperidin-4-yl)-3,7-dimethyl-2-(4-(methylsulfonyl)phenyl)-3H-imidazo[4,5-b]pyridine] | > 50000 nM | 1600 nM | 42 nM
Cc1cc(C2CCN(C3CCN(CC(C)C)CC3)CC2)nc2c1nc(-c1ccc(S(C)(=O)=O)cc1)n2C [Example 21, 5-(1′-isobutyl-[1,4′-bipiperidin]-4-yl)-3,7-dimethyl-2-(4-(methylsulfonyl)phenyl)-3H-imidazo[4,5-b]pyridine] | > 50000 nM | 4400 nM | 24 nM

The next lines start with the values.

IC50 [1] | IC50 [2] | IC50 [3] | Structure (SMILES)
> 50000 nM | > 50000 nM | 760 nM | CC(C)N1CCN(c2ccc(-c3ccc4nc(-c5ccc(S(C)(=O)=O)cc5)n(C5CC5)c4n3)cc2)CC1 [Example 54, 3-cyclopropyl-5-(4-(4-isopropylpiperazin-1-yl)phenyl)-2-(4-(methylsulfonyl)phenyl)-3H-imidazo[4,5-b]pyridine]
> 50000 nM | 480 nM | 73 nM | COCCN1C[C@H]2C[C@H](N3CCC(c4cc(C)c5nc(-c6ccc(OC)c(OC)c6)n(C)c5n4)CC3)C[C@H]2C1 [Example 41, 2-(3,4-dimethoxyphenyl)-5-(1-((3aR,5s,6aS)-2-(2-methoxyethyl)octahydrocyclopenta[c]pyrrol-5-yl)piperidin-4-yl)-3,7-dimethyl-3H-imidazo[4,5-b]pyridine]
> 50000 nM | > 50000 nM | 3200 nM | CS(=O)(=O)c1ccc(-c2nc3ccc(-c4ccc(N5CCN(CCN6CCOCC6)CC5)cc4)nc3n2C2CC2)cc1 [Example 57, 4-(2-(4-(4-(3-cyclopropyl-2-(4-(methylsulfonyl)phenyl)-3H-imidazo[4,5-b]pyridin-5-yl)phenyl)piperazin-1-yl)ethyl)morpholine]

Source: US20250177363A1, “SUBSTITUTED IMIDAZOPYRIDINYL COMPOUNDS USEFUL AS INHIBITORS OF TLR9” (Bristol-Myers Squibb Company, priority 2022, published 2025)
